According to US10626105B2, “Deuterium-substituted pyridin- and pyrimidin-2-yl-methylamine compounds” (Auspex Pharmaceuticals, Inc., priority 2016, dated 2020):

assay: In vitro human liver microsomal stability assay; type: in vitro ADME; conditions: human liver microsomes 0.5 mg/mL protein, NADPH 2 mM, pH 7.4, 1 μM test compound, 37 °C, 0-45 min; change relative to non-deuterated (d0) comparative compound
Method: In Vitro Liver Microsomal Stability Assay
Human liver microsomal stability assays were conducted at 0.5 mg per mL liver microsome protein with NADPH (2 mM, pH 7.4). Test compounds were prepared as solutions in DMSO and added to the assay mixture (1 μM, final concentration in incubation) to be incubated at 37±1° C. Reactions were initiated with the addition of cofactor and are stopped at 0, 5, 15, 30, and 45 min after cofactor addition with stop reagent (acetonitrile). After quenching, plates containing samples are vibrated for 10 min (600 rpm/min) and then centrifuged at 5594 g for 15 min. Supernatant fractions were analyzed by LC-MS/MS to determine the percent remaining and estimate the degradation half-life of the test compounds.

Clearance % change over d0	Half-life % change over d0	SMILES
8.4%	−7.7%	[2H]C([2H])([2H])c1cnc(CNCC2(F)CCN(C(=O)c3ccc(F)c(Cl)c3)CC2)nc1 [Example 10, (3-chloro-4-fluorophenyl)(4-fluoro-4-((((5-(methyl-d3)pyrimidin-2-yl)methyl)amino)methyl)piperidin-1-yl)methanone]
−0.9%	0.9%	[2H]C(NCc1ncc(C)cn1)C1(F)C([2H])([2H])C([2H])([2H])N(C(=O)c2ccc(F)c(Cl)c2)C([2H])([2H])C1([2H])[2H] (centres unmarked) [Example 13, ([1-[(3-chloro-4-fluorophenyl)carbonyl]-4-fluoro(d8)piperidin-4-yl](d)methyl)[(5-methylpyrimidin-2-yl)methyl]amine]
2.1%	−2.1%	[2H]C([2H])(NCc1ncc(C)cn1)C1(F)CCN(C(=O)c2ccc(F)c(Cl)c2)CC1 [Example 12, (3-chloro-4-fluorophenyl)(4-fluoro-4-((((5-methylpyrimidin-2-yl)methyl)amino)methyl-d2)piperidin-1-yl)methanone]
5.5%	−5.2%	[2H]C([2H])([2H])c1cnc(C([2H])([2H])NCC2(F)CCN(C(=O)c3ccc(F)c(Cl)c3)CC2)nc1 [Example 11, (3-chloro-4-fluorophenyl)(4-fluoro-4-((((5-(methyl-d3)pyrimidin-2-yl)methyl-d2)amino)methyl)piperidin-1-yl)methanone]

Continued, molecule first:

SMILES	Clearance % change over d0	Half-life % change over d0
[2H]C([2H])([2H])c1ccc(C([2H])([2H])NCC2(F)CCN(C(=O)c3ccc(F)c(Cl)c3)CC2)nc1 [Example 4, (3-chloro-4-fluorophenyl)(4-fluoro-4-((((5-(methyl-d3)pyridin-2-yl)methyl-d2)amino)methyl)piperidin-1-yl)methanone]	−5.1%	5.4%
[2H]C([2H])(NCC1(F)CCN(C(=O)c2ccc(F)c(Cl)c2)CC1)c1ncc(C)cn1 [Example 9, (3-chloro-4-fluorophenyl)(4-fluoro-4-((((5-methylpyrimidin-2-yl)methyl-d2)amino)methyl)piperidin-1-yl)methanone]	3.7%	−3.5%
[2H]C([2H])([2H])c1ccc(C([2H])([2H])NC([2H])([2H])C2(F)CCN(C(=O)c3ccc(F)c(Cl)c3)CC2)nc1 [Example 6, (3-chloro-4-fluorophenyl)(4-fluoro-4-((((5-(methyl-d3)pyridin-2-yl)methyl-d2)amino)methyl-d2)piperidin-1-yl)methanone]	−9.1%	10.0%
Cc1cnc(CNCC2(F)CCN(C(=O)c3ccc(F)c(Cl)c3)CC2)nc1 [Example 8, (3-chloro-4-fluorophenyl)(4-fluoro-4-((((5-methylpyrimidin-2-yl)methyl)amino)methyl)piperidin-1-yl)methanone, reference compound]	0%	0%
[2H]C([2H])([2H])c1ccc(CNCC2(F)CCN(C(=O)c3ccc(F)c(Cl)c3)CC2)nc1 [Example 3, (3-chloro-4-fluorophenyl)(4-fluoro-4-((((5-(methyl-d3)pyridin-2-yl)methyl)amino)methyl)piperidin-1-yl)methanone]	−5. %	5.6%
Cc1ccc(CNCC2(F)CCN(C(=O)c3ccc(F)c(Cl)c3)CC2)nc1 [Example 1, (3-chloro-4-fluorophenyl)(4-fluoro-4-((((5-methylpyridin-2-yl)methyl)amino)methyl)piperidin-1-yl)methanone, reference compound]	0%	0%
[2H]C(NCc1ccc(C)cn1)C1(F)C([2H])([2H])C([2H])([2H])N(C(=O)c2ccc(F)c(Cl)c2)C([2H])([2H])C1([2H])[2H] (centres unmarked) [Example 7, ([1-[(3-chloro-4-fluorophenyl)carbonyl]-4-fluoro(d8)piperidin-4-yl](d)methyl)[(5-methylpyridin-2-yl)methyl]amine]	−5.8%	6.2%
[2H]C([2H])(NCC1(F)CCN(C(=O)c2ccc(F)c(Cl)c2)CC1)c1ccc(C)cn1 [Example 5, (3-chloro-4-fluorophenyl)(4-fluoro-4-((((5-methylpyridin-2-yl)methyl-d2)amino)methyl)piperidin-1-yl)methanone]	−6.7%	7.2%
[2H]C([2H])(NCc1ccc(C)cn1)C1(F)CCN(C(=O)c2ccc(F)c(Cl)c2)CC1 [Example 2, (3-chloro-4-fluorophenyl)(4-fluoro-4-((((5-methylpyridin-2-yl)methyl)amino)methyl-d2)piperidin-1-yl)methanone]	−7.5%	8.4%
